Where two headings read alike, the source gives them in different places.
Experiments:
[1] = patients with ALI and ARDS; cited from earlier work
[2] = phase III study conducted in 2000; cited from earlier work
[3] = tested on: COVID-19; experiment: Retrospective multicenter cohort study of patients hospitalized with COVID-19, intrahospital mortality; type: in vivo, human
[4] = tested on: SARS-CoV-2; experiment: Pilot randomized clinical trial: ICU admission of hospitalized patients with or without calcifediol; type: in vivo; conditions: calcifediol YES group, 42 patients
Protocol: Preliminary study performed from 10 Mar. 2020 on 72 patients admitted in pneumology department at Hospital Universitario Reina Sofia in Cordoba, according to hospital protocol.
Administration of vitamin D (calcifediol):
The difference is statistically significant: Chi-squared with Yates' correction p=0.0001.
As shown in the results, progression of the disease requiring admission to the ICU occurred in only 1 of all the patients who were treated with calcifediol.

[5] = cited from earlier work
[6] = 14 clinical trials with 1303 patients; cited from earlier work
[7] = in vivo; cited from earlier work
[8] = tested on: renin and Ang II; conditions: rat lung tissues treated with lipopolysaccharide; cited from earlier work

In the case of `CC(=O)N[C@@H](CS)C(=O)O` [N-acetylcysteine], the mortality benefit [1] is listed as “have not shown any mortality benefits”.
In the case of `CC(=O)N1CCN(c2ccc(OCC3COC(Cn4ccnc4)(c4ccc(Cl)cc4Cl)O3)cc2)CC1` (centres unmarked) [Ketoconazole], the “mortality and secondary outcome measures” value [2] is listed as “did not show any improvement in mortality or in secondary outcome measures”.
For `C=C1CC[C@H](O)C/C1=C/C=C1\CCC[C@]2(C)[C@@H]([C@H](C)CCCC(C)(C)O)CC[C@@H]12` [calcifediol, 25-hydroxycholecalciferol], the mortality rate ([3]; 79 hospitalized COVID-19 patients who received calcifediol, vs 20.7% without, p <0.001) was 5.1%, the HR for mortality ([3]; fitted Cox proportional hazards models, calcifediol vs no calcifediol) was 0.17 (95% CI: 0.05 to 0.51) and the “death OR” value ([3]; patients who received calcifediol compared with patients who did not) was 0.20 (95% CI, 0.07 to 0.57). The “reduction of ICU admissions and death by process” value ([3]; patients with COVID-19, general statement at head of Example 2) was “at least 25%”, the “ICU NO (number of patients not admitted to the ICU)” value [4] was 41 and the “ICU YES (number of patients admitted to the ICU)” value ([4]; vs 13 of 30 without calcifediol, Chi-squared with Yates' correction p=0.0001) was 1.
For vitamin D, the “mortality at 28 days” value ([5]; by intramuscular or intravenous injection, vs placebo 40.8%) is given as 25.6%, the “OR, mortality at 28 days” value ([5]; grouped analysis of the 9 RCTs, 95% CI 0.46-1.15) is given as 0.73 and the “mortality at 28 days” value ([5]; grouped analysis of the 9 RCTs, vs placebo 21.7%) is given as 20.4%. The “OR, mortality at 28 days” value ([5]; high daily dose, CI 95% 0.51-1.36) was 0.83, the “mortality at 28 days” value ([5]; high daily dose, vs placebo 19.8%) was 20.9% and the “OR, mortality at 28 days” value ([5]; low daily dose, 95% CI 0.32-1.68) was 0.74. For the same compound, the “mortality at 28 days” value ([5]; low daily dose, vs placebo 21.3%) was 15.6%, the “OR, mortality at 28 days” value ([5]; only enterally, 95% CI 0.88-1.57) was 1.19 and the “mortality at 28 days” value ([5]; only enterally, vs placebo 18.2%) was 19.9%. For the same compound, the “duration of the stay in the ICU, standard mean difference [SMD]” value ([5]; vitamin D vs placebo, 95% CI −0.61 to 0.01) was −0.30, the “duration of hospital stay, SMD” value ([5]; vitamin D vs placebo) was −0.17 and the “duration of mechanical ventilation, SMD” value ([5]; vitamin D vs placebo) was −0.41.
In the case of nitric oxide [inhaled NO], the “oxygenation, survival, days off a ventilator” value [6] is listed as “only a temporary improvement in oxygenation without the benefit of survival or an increase in days off a ventilator”.
For `C[C@H](/C=C/[C@H](C)C(C)(C)O)[C@H]1CC[C@H]2/C(=C/C=C3C[C@@H](O)C[C@H](O)C3)CCC[C@]12C` [Paricalcitol, 19-nor-1,25-(OH)2-vitamin D2], the “effect on LPS-induced acute lung injury” value [7] is given as “improved the LPS-induced acute lung injury or SARS by maintaining the alveolar barrier function”.
In the case of `C=C1/C(=C\C=C2/CCC[C@]3(C)[C@@H]([C@H](C)CCCC(C)(C)O)CC[C@@H]23)C[C@@H](O)C[C@@H]1O` [Calcitriol, 1-alpha,25-dihydroxycholecalciferol], the “expression of renin and Ang II” value [8] is listed as “suppresses the expression of renin and Ang II”.

Source: patent US20230147455A1, “COMPOUNDS FOR THE PROPHYLAXIS AND/OR TREATMENT OF ACUTE RESPIRATORY DISTRESS SYNDROME” (SERVICIO ANDALUZ DE SALUD, priority 2020, published 2023)
